Test results published in patent US10519211B2, “Compounds as peptidic GLP1/glucagon/GIP receptor agonists” (SANOFI, priority 2016, dated 2019).
Numbered stars: 1 amine (or outer) side, 2 acyl side, 3 side chain; on linkers, the order of the positions; unused ones are H or OH. Square brackets hold non-standard residues; d marks the D form. Side chains are listed from the residue outwards. Peptide text beside a SMILES is read from it. * marks the point of attachment. Adipoyl(4R-palmitoylamino) = CCCCCCCCCCCCCCCC(=O)N[C@H](CCC(=O)*)CC(=O)O; γGlu = O=C(O)[C@H](CCC(=O)[*:2])N[*:1]; Palmitoyl = CCCCCCCCCCCCCCCC(=O)*; AEEA = NCCOCCOCC(=O)O; Aib = CC(C)(N)C(=O)O

What was measured:
Format in all cases: physicochemical
[1] = Thioflavin T (ThT) assay for physical stability (fibrillation); settings: 3 mg/ml, 100 mM acetate pH 4.5 with m-cresol, shaking at 37° C.
Protocol: Investigations were carried out to determine fibrillation tendencies under stress conditions by shaking at 37° C. within Fluoroskan Ascent FL.
For the tests in Fluoroskan Ascent FL, 200 μL sample were placed into a 96 well mictrotiter plate PS, flat bottom, Greiner Fluotrac No. 655076. Plates were sealed with Scotch Tape (Quiagen). Samples were stressed by continuous cycles of 10 s shaking at 960 rpm and 50 s rest period at 37° C. The kinetic was monitored by measuring fluorescence intensity every 20 minutes.
Peptides were diluted in a buffer system to a final concentration of 3 mg/ml. 20 μL of a 10.1 mM ThT solution in H2O were added to 2 mL of peptide solution to receive a final concentration of 100 μM ThT. For each sample eight replicates were tested.
Tht buffer system A) 100 mM Acetate pH 4.5 including m-cresol (100 mM Natriumacetat trihydrat, pH adjustment using 2N CH3COOH, 2.7 mg/mL m-cresol) Tht buffer system B) 100 mM citrate buffer pH 6.0
Lag time in hours in Thioflavin T (ThT) assay of peptide samples was determined in Tht buffer system A as described in Methods.

[2] = Chemical stability assessment (UPLC-UV, relative purity loss); settings: 1 mg/ml, 25 mM acetate buffer pH 4.5 with m-cresol (buffer system A)
Protocol: Prior to the chemical stability measurement of a peptide batch, its purity was determined through UPLC/MS. For stability testing the target concentration was 1 mg pure compound/ml. Therefore solutions from solid samples were prepared in a buffer system with a concentration of 1 mg/mL compound based on the previously determined % purity:
Chemical stability buffer system A) 25 mM acetate buffer pH4.5, 3 mg/mL L-Methionine, 2.7 mg/mL m-cresol, 18 mg/mL Glycerol 85%
Peptide solutions were filtered through […] pore size and filled into aliquots under aseptic conditions. At starting point UPLC-UV was performed by injection of 2 μl of the undiluted sample.
For chemical stability testing, aliquots were stored for 28 days at Sand 40° C. After this time course the samples were centrifuged for 15 min at 2500 RCF. Then 2 μl of the undiluted supernatant were analysed with UPLC-UV.
The chemical stability was rated through the relative loss of purity calculated by the equation: [(purity at starting point)−(purity after 28 days at X° C.)]/(purity at starting point)]*100%
The purity is calculated as [(peak area peptide)/(total peak area)]*100%
Peptide samples were prepared in Chemical stability buffer system A and chemical stability was assessed as described in Methods.

[3] = Solubility assessment (UPLC-UV); settings: acetate buffer pH 4.5, 2.7 mg/ml m-cresol (buffer system A), target 10 mg/ml
Protocol: Prior to the solubility measurement of a peptide batch, its purity was determined through UPLC/MS.
Therefore solutions from solid samples were prepared in a buffer systems with a concentration of 10 mg/mL compound based on the previously determined % purity:
Solubility buffer system A) Acetate Buffer pH 4.5, 100 mM sodium acetate trihydrate, 2.7 mg/ml m-Cresol
UPLC-UV was performed after 1 hour of gentle agitation from the supernatant, which was obtained after 15 min of centrifugation at 2500 RCF (relative centrifugal acceleration).
The solubility was determined by the comparison of the UV peak area of 2 μL-injection of a buffered sample diluted 1:10 with a standard curve of a reference peptide with known concentration. The different UV extinction coefficients of sample and reference peptide were calculated based on the different amino acid sequences and considered in the concentration calculation.
Peptide samples were prepared in solubility buffer system A and solubility was assessed as described in Methods.

Lag time before increase [1] [h] | Chemical stability [relative purity loss 28 days 40° C.] (%) at pH 4.5 [2] [%] | solubility at 1 h [3] [µg/mL] | SMILES
>45 |  |  | CCCCCCCCCCCCCCCC(=O)N[C@H](CCC(=O)NCCOCCOCC(=O)N[C@@H](CCC(=O)NCCCC[C@H](NC(=O)[C@H](CC(C)C)NC(=O)[C@H](CCCCN)NC(=O)[C@H](CO)NC(=O)[C@H](CC(C)C)NC(=O)[C@H](CC(=O)O)NC(=O)[C@H](CO)NC(=O)[C@@H](NC(=O)[C@H](Cc1ccccc1)NC(=O)[C@@H](NC(=O)CNC(=O)[C@H](CCC(N)=O)NC(=O)C(C)(C)NC(=O)[C@@H](N)Cc1c[nH]cn1)[C@@H](C)O)[C@@H](C)O)C(=O)N[C@@H](CCC(=O)O)C(=O)N[C@@H](CCCCN)C(=O)N[C@@H](CCC(N)=O)C(=O)N[C@@H](CCCNC(=N)N)C(=O)N[C@@H](CCC(N)=O)C(=O)NC(C)(C)C(=O)N[C@@H](CCC(=O)O)C(=O)N[C@@H](Cc1ccccc1)C(=O)N[C@H](C(=O)N[C@@H](CCC(=O)O)C(=O)N[C@@H](Cc1c[nH]c2ccccc12)C(=O)N[C@@H](CC(C)C)C(=O)N[C@@H](CCCCN)C(=O)N[C@@H](C)C(=O)N[C@H](C)C(=O)NCC(=O)N[C@@H](Cc1c[nH]cn1)C(=O)N1CCC[C@H]1C(=O)N[C@@H](CO)C(=O)NC(C)(C)C(=O)N[C@@H](CCCCN)C(=O)N1CCC[C@H]1C(=O)N1CCC[C@H]1C(=O)N1CCC[C@H]1C(=O)N[C@@H](CCCCN)C(N)=O)[C@@H](C)CC)C(=O)O)CC(=O)O [SEQ ID NO: 21, H-Aib-Q-G-T-F-T-S-D-L-S-K-L-K[gGlu-AEEA-gAAA-Palm]-E-K-Q-R-Q-Aib-E-F-I-E-W-L-K-A-dAla-G-H-P-S-Aib-K-P-P-P-K-NH2] (H-H[Aib]QGTFTSDLSKLK([γGlu-AEEA-Adipoyl(4R-palmitoylamino)])EKQRQ[Aib]EFIEWLKA[dA]GHPS[Aib]KPPPK-NH2)
>45 | 7.2 | > 9900 | CCCCCCCCCCCCCCCC(=O)N[C@@H](CCC(=O)N[C@@H](CCC(=O)NCCCC[C@H](NC(=O)[C@H](CC(C)C)NC(=O)[C@H](CCCCN)NC(=O)[C@H](CO)NC(=O)[C@H](CC(C)C)NC(=O)[C@H](CC(=O)O)NC(=O)[C@H](CO)NC(=O)[C@@H](NC(=O)[C@H](Cc1ccccc1)NC(=O)[C@@H](NC(=O)CNC(=O)[C@H](CCC(N)=O)NC(=O)C(C)(C)NC(=O)[C@@H](N)Cc1c[nH]cn1)[C@@H](C)O)[C@@H](C)O)C(=O)N[C@@H](CCC(=O)O)C(=O)N[C@@H](CCC(=O)O)C(=O)N[C@@H](CCC(N)=O)C(=O)N[C@@H](CCCNC(=N)N)C(=O)N[C@@H](CCC(N)=O)C(=O)NC(C)(C)C(=O)N[C@@H](CCC(=O)O)C(=O)N[C@@H](Cc1ccccc1)C(=O)N[C@H](C(=O)N[C@@H](CCC(=O)O)C(=O)N[C@@H](Cc1c[nH]c2ccccc12)C(=O)N[C@@H](CC(C)C)C(=O)N[C@@H](CCCCN)C(=O)N[C@@H](C)C(=O)N[C@H](C)C(=O)NCC(=O)N[C@@H](Cc1c[nH]cn1)C(=O)N1CCC[C@H]1C(=O)N[C@@H](CO)C(=O)NC(C)(C)C(=O)N[C@@H](CCCCN)C(=O)N1CCC[C@H]1C(=O)N1CCC[C@H]1C(=O)N1CCC[C@H]1C(=O)N[C@@H](CCCCN)C(N)=O)[C@@H](C)CC)C(=O)O)C(=O)O [SEQ ID NO: 11, H-Aib-Q-G-T-F-T-S-D-L-S-K-L-K[gGlu-gGlu-Palm]-E-E-Q-R-Q-Aib-E-F-I-E-W-L-K-A-dAla-G-H-P-S-Aib-K-P-P-P-K-NH2] (H-H[Aib]QGTFTSDLSKLK([γGlu-γGlu-Palmitoyl])EEQRQ[Aib]EFIEWLKA[dA]GHPS[Aib]KPPPK-NH2)
>45 |  |  | CCCCCCCCCCCCCCCC(=O)N[C@H](CCC(=O)NCCOCCOCC(=O)N[C@@H](CCC(=O)NCCCC[C@H](NC(=O)[C@H](CC(C)C)NC(=O)[C@H](CCCCN)NC(=O)[C@H](CO)NC(=O)[C@H](CC(C)C)NC(=O)[C@H](CC(=O)O)NC(=O)[C@H](CO)NC(=O)[C@@H](NC(=O)[C@H](Cc1ccccc1)NC(=O)[C@@H](NC(=O)CNC(=O)[C@H](CCC(N)=O)NC(=O)C(C)(C)NC(=O)[C@@H](N)Cc1c[nH]cn1)[C@@H](C)O)[C@@H](C)O)C(=O)N[C@@H](CCC(=O)O)C(=O)N[C@@H](CCC(=O)O)C(=O)N[C@@H](CCC(N)=O)C(=O)N[C@@H](CCCNC(=N)N)C(=O)N[C@@H](CCC(N)=O)C(=O)NC(C)(C)C(=O)N[C@@H](CCC(=O)O)C(=O)N[C@@H](Cc1ccccc1)C(=O)N[C@H](C(=O)N[C@@H](CCC(=O)O)C(=O)N[C@@H](Cc1c[nH]c2ccccc12)C(=O)N[C@@H](CC(C)C)C(=O)N[C@@H](CCCCN)C(=O)N[C@@H](C)C(=O)NCC(=O)NCC(=O)N[C@@H](Cc1c[nH]cn1)C(=O)N1CCC[C@H]1C(=O)N[C@@H](CO)C(=O)NC(C)(C)C(=O)N[C@@H](CCCCN)C(=O)N1CCC[C@H]1C(=O)N1CCC[C@H]1C(=O)N1CCC[C@H]1C(=O)N[C@@H](CCCCN)C(N)=O)[C@@H](C)CC)C(=O)O)CC(=O)O [SEQ ID NO: 22, H-Aib-Q-G-T-F-T-S-D-L-S-K-L-K[gGlu-AEEA-gAAA-Palm]-E-E-Q-R-Q-Aib-E-F-I-E-W-L-K-A-G-G-H-P-S-Aib-K-P-P-P-K-NH2] (H-H[Aib]QGTFTSDLSKLK([γGlu-AEEA-Adipoyl(4R-palmitoylamino)])EEQRQ[Aib]EFIEWLKAGGHPS[Aib]KPPPK-NH2)
>45 |  |  | CCCCCCCCCCCCCCCC(=O)NCCOCCOCC(=O)N[C@@H](CCC(=O)N[C@@H](CCC(=O)NCCCC[C@H](NC(=O)[C@H](CC(C)C)NC(=O)[C@H](CCCCN)NC(=O)[C@H](CO)NC(=O)[C@H](CC(C)C)NC(=O)[C@H](CC(=O)O)NC(=O)[C@H](CO)NC(=O)[C@@H](NC(=O)[C@H](Cc1ccccc1)NC(=O)[C@@H](NC(=O)CNC(=O)[C@H](CCC(N)=O)NC(=O)C(C)(C)NC(=O)[C@@H](N)Cc1c[nH]cn1)[C@@H](C)O)[C@@H](C)O)C(=O)N[C@@H](CCC(=O)O)C(=O)N[C@@H](CCCCN)C(=O)N[C@@H](CCC(N)=O)C(=O)N[C@@H](CCCNC(=N)N)C(=O)N[C@@H](CCC(N)=O)C(=O)NC(C)(C)C(=O)N[C@@H](CCC(=O)O)C(=O)N[C@@H](Cc1ccccc1)C(=O)N[C@H](C(=O)N[C@@H](CCC(=O)O)C(=O)N[C@@H](Cc1c[nH]c2ccccc12)C(=O)N[C@@H](CC(C)C)C(=O)N[C@@H](CCCCN)C(=O)N[C@@H](C)C(=O)NCC(=O)NCC(=O)N[C@@H](Cc1c[nH]cn1)C(=O)N1CCC[C@H]1C(=O)N[C@@H](CO)C(=O)NC(C)(C)C(=O)N[C@@H](CCCCN)C(=O)N1CCC[C@H]1C(=O)N1CCC[C@H]1C(=O)N1CCC[C@H]1C(=O)N[C@@H](CCCCN)C(N)=O)[C@@H](C)CC)C(=O)O)C(=O)O [SEQ ID NO: 16, H-Aib-Q-G-T-F-T-S-D-L-S-K-L-K[gGlu-gGlu-AEEA-Palm]-E-K-Q-R-Q-Aib-E-F-I-E-W-L-K-A-G-G-H-P-S-Aib-K-P-P-P-K-NH2] (H-H[Aib]QGTFTSDLSKLK([γGlu-γGlu-AEEA-Palmitoyl])EKQRQ[Aib]EFIEWLKAGGHPS[Aib]KPPPK-NH2)
